Measured values published in article PMC3138190 (Bioorganic & medicinal chemistry, 2011).
Each block holds one molecule with its values, some of them ahead of it.

Legend:
FPGS = settings: addition of only one additional glutamic acid; cited from earlier work
[1] = test system: hFPGS, from CCRF-CEM cells; settings: at concentrations up to 1045 μM; cited from earlier work
human DHFR = target: T1, human DHFR (Homo sapiens, UniProt P00374); experiment: Dihydrofolate reductase; assay type: biochemical; settings: for activity against DHFR in words: DHFR from different sources
T1 sequence (P00374 1-187): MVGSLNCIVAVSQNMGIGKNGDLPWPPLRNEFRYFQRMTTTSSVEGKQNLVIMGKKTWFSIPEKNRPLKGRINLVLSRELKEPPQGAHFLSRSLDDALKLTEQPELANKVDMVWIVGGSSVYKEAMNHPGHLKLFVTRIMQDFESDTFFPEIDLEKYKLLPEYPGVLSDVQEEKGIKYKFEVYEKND

human TS = human TS (Homo sapiens, UniProt P04818); experiment: Thymidylate synthase; assay type: biochemical
Sequence of human TS (P04818 whole entry): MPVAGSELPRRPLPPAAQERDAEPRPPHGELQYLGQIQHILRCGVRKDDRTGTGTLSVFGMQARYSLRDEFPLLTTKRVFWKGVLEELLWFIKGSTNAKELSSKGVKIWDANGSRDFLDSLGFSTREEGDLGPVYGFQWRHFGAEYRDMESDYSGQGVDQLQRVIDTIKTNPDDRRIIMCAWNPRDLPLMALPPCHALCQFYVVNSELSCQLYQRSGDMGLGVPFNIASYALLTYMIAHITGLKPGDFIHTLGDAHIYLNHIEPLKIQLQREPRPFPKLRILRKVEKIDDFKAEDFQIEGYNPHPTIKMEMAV

SMILES: Cc1nc2ccc3ccc(CNc4ccc5c(c4)CN([C@@H](CCC(=O)O)C(=O)O)C5=O)cc3c2c(=O)[nH]1 [Compound 2]
- substrate activity for FPGS (FPGS): excellent substrate

SMILES: Cc1[nH]c2nc(N)[nH]c(=O)c2c1Sc1ccc(C(=O)N[C@@H](CCC(=O)O)C(=O)O)cc1 [Compound 3, N-{4-[(2-amino-6-methyl-4-oxo-4,7-dihydro-3H-pyrrolo[2,3-d]pyrimidin-5-yl)thio]benzoyl}-L-glutamic acid]
- substrate activity for hFPGS [1]: not a substrate

- activity against DHFR in words (human DHFR): inactive
SMILES: Cc1nc2sc3cccc(CNc4ccc(C(=O)N[C@@H](CCC(=O)O)C(=O)O)cc4)c3c2c(=O)[nH]1 [Compound 4, N-(4-{[(2-methyl-4-oxo-3,4-dihydro[1]benzothieno[2,3-d]pyrimidin-5-yl)methyl]amino}benzoyl)-L-glutamic acid]

- potency against hTS relative to 4 (less potent) (human TS; hTS, rigid versus flexible side chain, 2-methyl): 3 fold
- activity against DHFR in words (human DHFR): inactive
SMILES: Cc1nc2sc3cccc(CNc4ccc5c(c4)CN([C@@H](CCC(=O)O)C(=O)O)C5=O)c3c2c(=O)[nH]1 [Compound 5, (2S)-2-(5-{[(2-methyl-4-oxo-3,4-dihydro[1]benzothieno[2,3-d]pyrimidin-5-yl)methyl]amino}-1-oxo-1,3-dihydro-2H-isoindol-2-yl)pentanedioic acid]

- potency against hDHFR relative to MTX (less potent) (human DHFR): about 5 times
SMILES: Nc1nc2sc3cccc(CNc4ccc(C(=O)N[C@@H](CCC(=O)O)C(=O)O)cc4)c3c2c(=O)[nH]1 [Compound 6, N-(4-{[(2-amino-4-oxo-3,4-dihydro[1]benzothieno[2,3-d]pyrimidin-5-yl)methyl]amino}benzoyl)-L-glutamic acid]

- potency against hTS relative to compound 1 (more potent) (human TS; hTS): 2 fold
- potency relative to 6 (human TS; rigid versus flexible side chain, 2-amino): twice as potent
- potency against hDHFR relative to MTX (less potent) (human DHFR): about 5 times
SMILES: Nc1nc2sc3cccc(CNc4ccc5c(c4)CN([C@@H](CCC(=O)O)C(=O)O)C5=O)c3c2c(=O)[nH]1 [Compound 7, (2S)-2-(5-{[(2-Amino-4-oxo-3,4-dihydro[1]benzothieno[2,3-d]pyrimidin-5-yl)methyl]amino}-1-oxo-1,3-dihydro-2H-isoindol-2-yl)pentanedioic acid]
